Experiment [1] concerns Lobesia males. Kind of experiment: Outdoor wind tunnels over vine rows, simulated mating disruption. The experiment is classed as in vivo. The text has this: In spring 1994 two outdoor wind tunnels were built over a row of vines in each case in an experimental field of the SLFA Neustadt. These were aluminum scaffoldings 2 m high, 2 m wide and 10 m long.
The front and back were covered with mosquito nets made of cotton (mesh width 1.5×1.5 mm); 50μ thick polyethylene film lay over the entire length.
Air was blown into the interior through a ventilator at the front of the tunnel.
Two traps each were attached at a height of approximately 60 cm in the interior of the two wind tunnels on the ventilator side. The traps were lured with E7,Z9-dodecadien-1-yl acetate. Tunnel 1 remained untreated and served as a control. To simulate a mating disruption situation, 10 filter papers were uniformly distributed at various heights (20-120 cm) in tunnel 2 along the row of grapevines. 1 ml of citral solution in silicone oil with a dilution of 10^−1 g/g was in each case added dropwise to these in order to achieve a uniform concentration of the substance in the interior. A specific number of Lobesia males were in each case set free on the sides of the two wind tunnels opposite to the ventilator sides. After the end of the experiment, the Lobesia males captured in the traps were counted and the recapture rate was determined.

The subject of experiment [2] is Lobesia males. Kind of experiment: Laboratory wind tunnel preference test with pheromone-lured electric traps. The experiment is classed as in vivo. Conditions: cartridges with 30 μl E7,Z9-dodecadien-1-yl acetate 10^-4 g/g silicone oil plus citral 10^-1 g/g silicone oil, relative to standard (pheromone alone) set equal to one. The text has this:
Laboratory Wind Tunnel 4 electric traps up to […] in size were installed in a laboratory wind tunnel. As electric traps, commercially available electric insect capture appliances were rebuilt to give recording lure traps. The fluorescent tube normally responsible for the attractant action was replaced by a scent source. To avoid positional effects, the four traps were […]. The wheel rim was rotated by means of a motor having a speed of two revolutions per hour (once around its own axis and back), so that the traps continuously changed position. […] The number of moths trapped in each case was determined daily. By means of the number of moths trapped in the individual traps, the attractiveness of the particular lure was determined (preference test). The influence of various dilutions of E7,Z9-dodecadien-1-yl acetate was determined by setting the number of moths in the most common trap equal to one; the capturing ability of the other traps was calculated relative to this. […] The recapture rate of the standard was set equal to one and that of the traps with the terpene additive was calculated relative to this.

In the case of `CC(C)=CCCC(C)=CC=O` [citral], in the experiment on Lobesia males [1] (ratio of captured to released Lobesia males, traps lured with E7,Z9-dodecadien-1-yl acetate, 10 filter papers each with 1 ml citral solution 10^-1 g/g in silicone oil in the tunnel), the Recapture rate is recorded as 0.01. For the same compound, the “inhibition of the recapture rate” value is reported as 94.5% in the experiment with Lobesia males [1] (tunnel 2 (citral, 10 filter papers, 1 ml of 10^-1 g/g in silicone oil) versus untreated control tunnel 1) and 90% in the experiment on Lobesia males [2].
